Series [1] in a line: Analysis of blood levels of Example 4 in study mice. It counts as in vivo. To be noted: CD-1, whole blood, ip, mouse, 90 minutes after administration, n=3, mean [range], read-out: Blood concentration of Test Drug. As for the experimental part:
Blood samples were collected from a subset of study mice (n=3) at the end of the behavioural measurement (90 minutes post-dose of test drug), and assayed using a method based on protein precipitation with acetonitrile followed by HPLC-MS/MS analysis with an optimized analytical method. Since the stability of the analyte in blood and brain was unknown, Calibration standards (CS) and Quality control samples (QC) were prepared on the day of dosing and stored together with study samples. Study samples, CS, QC and blanks were spiked with rolipram as internal standard (IS). Study samples were analyzed in discrete batches together with CS, QC and blank samples.

For a further series, the system named is Male CD-1 mice. The series is described as follows: Biological Example 2: psychostimulant (amphetamine)-induced hyperactivity in mice. The conditions noted are these: over 60 minutes, mean ± sem.
Series [2] addresses T1, human Kv3.2 channels (hKv3.2) (Homo sapiens, UniProt Q96PR1).
T1 construct: expressed in transfected cells
T1 sequence (Q96PR1 1-638): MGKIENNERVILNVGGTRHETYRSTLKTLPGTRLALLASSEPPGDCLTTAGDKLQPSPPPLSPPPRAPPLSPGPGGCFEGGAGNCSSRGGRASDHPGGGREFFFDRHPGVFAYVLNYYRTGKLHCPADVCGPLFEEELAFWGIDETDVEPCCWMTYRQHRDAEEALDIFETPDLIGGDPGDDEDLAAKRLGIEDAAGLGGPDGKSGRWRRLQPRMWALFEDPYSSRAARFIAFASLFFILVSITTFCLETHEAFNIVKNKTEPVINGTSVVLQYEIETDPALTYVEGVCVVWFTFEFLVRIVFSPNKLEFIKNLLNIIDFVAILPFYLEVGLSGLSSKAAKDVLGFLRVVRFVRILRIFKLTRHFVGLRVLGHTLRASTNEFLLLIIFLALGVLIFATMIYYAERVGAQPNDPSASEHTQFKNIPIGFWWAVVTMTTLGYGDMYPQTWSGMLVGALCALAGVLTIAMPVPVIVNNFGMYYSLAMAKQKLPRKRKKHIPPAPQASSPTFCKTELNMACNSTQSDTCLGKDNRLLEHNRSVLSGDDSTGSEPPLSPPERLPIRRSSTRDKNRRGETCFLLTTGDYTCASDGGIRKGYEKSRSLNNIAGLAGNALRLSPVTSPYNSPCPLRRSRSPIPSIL
As to the kind of experiment: Biological Example 1: hKv3.2 whole-cell currents, IonWorks Quattro planar array electrophysiology. It counts as cell-based. The source says:
The ability of the compounds of the invention to modulate the voltage-gated potassium channel subtypes Kv3.2 or Kv3.1 may be determined using the following assay. Analogous methods may be used to investigate the ability of the compounds of the invention to modulate other channel subtypes, including Kv3.3 and Kv3.4.
To assess compound effects on human Kv3.2 channels (hKv3.2), a stable cell line expressing hKv3.2 was created by transfecting Chinese Hamster Ovary (CHO)-K1 cells with a pClH5-hKv3.2 vector. Cells were cultured in DMEM/F12 medium supplemented by 10% Foetal Bovine Serum, lx non-essential amino acids (Invitrogen) and 500 ug/ml of Hygromycin-B (Invitrogen). Cells were grown and maintained at 37° C. in a humidified environment containing 5% CO2 in air.
The day of the experiment, cells were removed from the incubator and the culture medium removed. Cells were washed with 5 ml of Dulbecco's PBS (DPBS) calcium and magnesium free and detached by the addition of 3 ml Versene (Invitrogen, Italy) followed by a brief incubation at 37° C. for 5 minutes. The flask was tapped to dislodge cells and 10 ml of DPBS containing calcium and magnesium was added to prepare a cell suspension. The cell suspension was then placed into a 15 ml centrifuge tube and centrifuged for 2 min at 1200 rpm. After centrifugation, the supernatant was removed and the cell pellet re-suspended in 4 ml of DPBS containing calcium and magnesium using a 5 ml pipette to break up the pellet. Cell suspension volume was then corrected to give a cell concentration for the assay of approximately 3 million cells per ml.
Experiments were conducted at room temperature using IonWorks Quattro™ planar array electrophysiology technology (Molecular Devices Corp.) with PatchPlate™ PPC. Stimulation protocols and data acquisition were carried out using a microcomputer (Dell Pentium 4). Planar electrode hole resistances (Rp) were determined by applying a 10 mV voltage step across each well. These measurements were performed before cell addition. […] Following this, amphotericin-B solution was added to the intracellular face of the electrode to achieve intracellular access. Cells were held at −70 mV. Leak subtraction was conducted in all experiments by applying 50 ms hyperpolarizing (10 mV) prepulses to evoke leak currents followed by a 20 ms period at the holding potential before test pulses. From the holding potential of −70 mV, a first test pulse to −15 mV was applied for 100 ms and following a further 100 ms at −70 mV, a second pulse to 40 mV was applied for 50 ms. Cells were then maintained for a further 100 ms at −100 mV and then a voltage ramp from −100 mV to 40 mV was applied over 200 ms. Test pulses protocol may be performed in the absence (pre-read) and presence (post-read) of the test compound. Pre- and post-reads may be separated by the compound addition followed by a 3 minute incubation.
The intracellular solution contained the following (in mM): K-gluconate 100, KCl 54, MgCl2 3.2, HEPES 5, adjusted to pH 7.3 with KOH. Amphotericin-B solution was prepared as […] stock solution in DMSO and diluted to a final working concentration of 0.1 mg/ml in intracellular solution.
Compounds of the invention (or reference compounds such as N-cyclohexyl-N-[(7,8-dimethyl-2-oxo-1,2-dihydro-3-quinolinyl)methyl]-N′-phenylurea were dissolved in dimethylsulfoxide (DMSO) at a stock concentration of 10 mM. These solutions were further diluted with DMSO using a Biomek FX
Each dilution (1 μL) was transferred to another compound plate and external solution containing 0.05% pluronic acid (66 μL) was added. 3.5 μL from each plate containing a compound of the invention was added and incubated with the cells during the lonWorks Quattro™ experiment. The final assay dilution was 200 and the final compound concentrations were in the range 50 μM to 50 nM.
On the technique in general: The patch-clamp technique gives a direct electrical read-out from membranes.

Series [3] has as its system "fast-firing" interneurons in the somatosensory cortex. As to the kind of experiment: Recordings from identified fast-firing interneurons, trains of high frequency depolarising current pulses. In kind it is cell-based, mouse. The conditions noted are these: 1 microM, n=6; trains of depolarising pulses at 100, 200, 300 Hz; p<0.05 vs no drug; listed as Reference Example 9. The text has this: FIG. 2. Recordings made from identified “fast-firing” interneurons in the somatosensory cortex of the mouse.
Kv3.1 and Kv3.2 channels must activate and deactivate very rapidly in order to allow neurons to fire actions potentials at high frequency (Rudy and McBain, 2001, Trends in Neurosciences 24, 517-526). Slowing of activation is likely to delay the onset of action potential repolarisation; slowing of deactivation could lead to hyperpolarising currents that reduce the excitability of the neuron and delay the time before the neuron can fire a further action potential. Together these slowing effects on channel activation and deactivation are likely to lead to a reduction rather than a facilitation of the neurons ability to fire at high frequencies. Thus compounds that have this slowing effect on the Kv3.1 and/or Kv3.2 channels may slow neuronal firing.
The neurons are induced to fire at high frequencies by trains of high frequency depolarising current pulses at 100, 200, and 300 Hz. The ability of the neuron to fire an action potential on each pulse is determined. […] In the absence of drug (closed circles, n=9), the neurons maintained a spike probability of 1 up to 300 Hz.

The source of these data is patent US10098881B2, “Compounds” (AUTIFONY THERAPEUTICS LIMITED, priority 2011, dated 2018).

“Also recorded” adds a separate entry of the source. Like-named read-outs stand apart in the source and are kept apart here.

With `Cc1ccc(Oc2ncc(N3C(=O)NC(C)(C)C3=O)cn2)c2c1OCC21CC1` [Example 4, 5,5-dimethyl-3-[2-(7-methylspiro[2H-benzofuran-3,1′-cyclopropane]-4-yl)oxypyrimidin-5-yl]imidazolidine-2,4-dione], the concentration at 90 min is 0.098 µg/mL in series [1] (Example 4 3 mg/kg i.p.), 0.244 µg/mL in series [1] (Example 4 10 mg/kg i.p.) and 2.14 µg/mL in series [1] (Example 4 30 mg/kg i.p.). Also, the “Locomotor activity (beam crosses)” value is listed as 10263 ± 2443 beam crosses with Male CD-1 mice (AMPH 2 mg/kg i.p. + Example 4 3 mg/kg i.p. 30 min before); 9015 ± 1413 beam crosses in the series with Male CD-1 mice (AMPH 2 mg/kg i.p. + Example 4 10 mg/kg i.p. 30 min before, p<0.05 vs amphetamine alone); 4555 ± 922 beam crosses with Male CD-1 mice (AMPH 2 mg/kg i.p. + Example 4 30 mg/kg i.p. 30 min before, p<0.001 vs amphetamine alone).

In series [2] (hKv3.2, -15 mV voltage step, compound 0.2 μM (concentration giving ~0.3 nA current at end of pulse)), `CC[C@H]1NC(=O)N(c2ccc(Oc3cccc4c3C3(CC3)CO4)nc2)C1=O` [RE9, reference compound] gave a Tauact mean of 50.1 ms. Further, the Tauact in series [2] (hKv3.2, each tested at a concentration that increased the Kv3.2 current to a similar level (~0.3 nA)) came out at 50.1 ± 7.5 ms. Further, the “ability of the neurons to fire on each pulse (spike probability)” value in series [3] is “reduces the ability of the neurons to fire; also recorded: unable to follow trains at the highest frequency”.
